Entries after “also recorded” stand apart in the source; their conditions may differ. Where two headings read alike, the source gives them in different places. Where a SMILES comes first, the peptide text is derived from it. Bridges are numbered along the chain shown (N, C = ends). Where no end group is shown, it is not given here.
What was measured:
[1] = test system: ovariectomized (OVX) rats with severely depleted trabecular bone; experiment: Bone restoration in OVX rats with severely depleted trabecular bone, treatment from 9 weeks after OVX; type: in vivo, rat; details: 0.6 nmole/100 g once daily for 6 weeks, started 9 weeks after OVX
Source text: Doses were based upon dose-response data on hPTH(1-31)-NH2. […] By the end of the 9th week they had lost about 75% of their femoral trabecular bone mass. […] The fragment could also stimulate trabecular bone growth in much older rates. […] Accordingly, the dosage of 0.6 nmole/100 g of body weight was used in further tests.
In this second example of bone restoration, the abilities of the lactam fragments to restore severely depleted trabecular bone are compared. In this experiment, the 6-week program of once-daily injections of 0.6 nmole of peptide/100 g of body weight of young sexually mature rats was delayed until the end of the 9th week after OVX. At this time, 75% of their trabecular bone had been lost.

[2] = test system: anesthetized female Sprague-Dawley rats; experiment: Hypotensive effect, tail artery pressure in anaesthetized rats; details: for time to reduction of tail artery pressure: injection into a femoral vein
Protocol: Female Sprague-Dawley rats (weighing over 290 g) were anaesthetized with intraperitoneally injected sodium pentobarbital (65 mg/kg body weight). Rectal temperature was monitored with a YS1402 thermistor (Yellow Springs Instrument Co., Inc. Yellow Springs, Ohio) and maintained between 36.0 and 38.5° C. throughout the experiment. Ear pinna temperature was also monitored using a YSi banjo thermistor. The tail artery was exposed to cannulated with a Jelco 25-gIV catheter (Johnson and Johnson Medical Inc., Arlington, Tex.) and connected to a Statham pressure transducer, the signals from which were recorded digitally with a Biopac Systems MP100 Monitor (Harvard Instruments, Saint Laurent, QC, Canada). For intravenous injection of PTH or one of its fragments, a femoral vein was also exposed. After surgery, the rat was allowed to stabilize for 8 min after which PTH or one of its fragments (dissolved in acidified saline containing 0.001 N HCl) was injected into the femoral vein or under the skin of the abdomen. Data were collected for 12 min after intravenous injection or for 22 min after subcutaneous injection.

[3] = molecular target: T1, adenylyl cyclase, ROS 17/2 cells (Rattus norvegicus, UniProt P25961); experiment: Adenylyl cyclase stimulation, [3H]-cyclic AMP production in ROS 17/2 cells; type: cell-based
T1 sequence (P25961 27-591): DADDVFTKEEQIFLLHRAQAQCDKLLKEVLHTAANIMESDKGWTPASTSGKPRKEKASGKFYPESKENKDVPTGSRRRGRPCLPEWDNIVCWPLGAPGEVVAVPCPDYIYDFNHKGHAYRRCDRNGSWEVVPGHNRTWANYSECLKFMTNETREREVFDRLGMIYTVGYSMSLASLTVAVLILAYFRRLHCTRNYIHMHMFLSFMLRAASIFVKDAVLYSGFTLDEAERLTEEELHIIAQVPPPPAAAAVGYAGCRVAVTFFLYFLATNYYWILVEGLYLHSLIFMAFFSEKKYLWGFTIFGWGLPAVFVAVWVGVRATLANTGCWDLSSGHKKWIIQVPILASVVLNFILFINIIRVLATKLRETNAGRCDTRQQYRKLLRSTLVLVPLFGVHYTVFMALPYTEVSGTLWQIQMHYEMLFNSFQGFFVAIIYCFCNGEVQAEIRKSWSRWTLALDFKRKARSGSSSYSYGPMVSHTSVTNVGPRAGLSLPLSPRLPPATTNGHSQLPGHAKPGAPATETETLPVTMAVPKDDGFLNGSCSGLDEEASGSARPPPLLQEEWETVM

[4] = test system: ovariectomized (OVX) Sprague-Dawley rats; experiment: Anabolic activity in ovariectomized rat model, injections from 2nd to 8th week after OVX; type: in vivo; details: for osteogenic activity, in words: subcutaneously injected
Source text: A full description of the protocol is given in Rixon et al, J. Bone & Mineral Research 9, 1179-1189, 1994 and Whitfield et al Calcif. Tissue Int. 58, 81-87, 1996 incorporated herein by reference. Normal, Sham-OVX (ovariectomized), and OVX Sprague-Dawley rats (3 months-old; 255-260 g) were purchased from
Charles River Laboratories (St. Constant, QC). The rats were randomized into groups of 8 animals which received Purina rat chow and water ad libitum. There were no unscheduled deaths. The animals received 6, once-daily subcutaneous injections/week starting at the end of the second week after OVX, and ending at the end of the 8th week after OVX (i.e., 36 injections). Eight Sham-OVX and 8 OVX controls rats received 36 injections of vehicle (0.15 M NaCl containing 0.001N HCl) while 8 OVX rats received 0.6 nmole of fragment in vehicle/100 g of body weight). At the end of the 8th week after OVX, femurs were removed isolated, cleaned, and cut in half at mid-diaphysis and the proximal half was discarded. After removing the epiphysis, each half-femur was split lengthwise into two parts and the bone marrow was flushed out.
The bone-building potencies of the fragments were assessed from the changes in the mean thicknesses (area/perimeter) of the trabeculae in the distal half-femurs from the variously treated animals. To measure mean trabecular thickness, the two demineralized half-femurs from each rat were dehydrated and embedded in paraffin. Longitudinal, 10-μm sections from the middle plane of each bone were cut and then strained with Sanderson's rapid bone stain (Surgipath Medical Industries, Inc., Winnipeg, MB, Canada). The mean trabecular thickness was measured using a M4 imaging system and bone morphometric software from Imaging Research Inc., (St. Catherines, ON, Canada).
The results are further presented in the form of a bar graph in FIG. 7.

[5] = molecular target: T1, adenylyl cyclase, ROS 17/2 cells; details: previously reported, cited from earlier work
[6] = ROS cell line, read-out: EC50, AC-stimulating activity
[7] = intravenous, 0.8 nmol/100 g of body weight

## CC[C@H](C)[C@H](NC(=O)[C@H](CCC(=O)O)NC(=O)[C@H](CO)NC(=O)[C@@H](NC(=O)[C@@H](N)CO)C(C)C)C(=O)N[C@@H](CCC(N)=O)C(=O)N[C@@H](CC(C)C)C(=O)N[C@@H](CCSC)C(=O)N[C@@H](Cc1c[nH]cn1)C(=O)N[C@@H](CC(N)=O)C(=O)N[C@@H](CC(C)C)C(=O)NCC(=O)N[C@@H](CCCCN)C(=O)N[C@@H](Cc1c[nH]cn1)C(=O)N[C@@H](CC(C)C)C(=O)N[C@@H](CC(N)=O)C(=O)N[C@@H](CO)C(=O)N[C@@H](CCSC)C(=O)N[C@@H](CCC(=O)O)C(=O)N[C@@H](CCCNC(=N)N)C(=O)N[C@H](C(=O)N[C@H]1CCC(=O)NCCCC[C@@H](C(=O)N[C@@H](CC(C)C)C(=O)N[C@@H](CC(C)C)C(=O)N[C@@H](CCC(N)=O)C(=O)N[C@@H](CC(=O)O)C(=O)N[C@H](C(N)=O)C(C)C)NC(=O)[C@H](CCCNC(=N)N)NC(=O)[C@H](CC(C)C)NC(=O)[C@H](Cc2c[nH]c3ccccc23)NC1=O)C(C)C [peptide 3, [Leu^27]cyclo(Glu^22-Lys^26)-hPTH-(1-31)-NH2] (H-SVSEIQLMHNLGKHLNSMERVEWLRKLLQDV-NH2; lactam 22-26; N-terminus assumed)
[1]; listed as (Leu^27)cyclo(Glu^22-Lys^26)-hPTH-(1-31)NH2
  trabecular bone volume: restored the trabecular bone volume to the values in normal control rats
[1]; listed as (Leu^27)cyclo(Glu^22-Lys^26)hPTH-(1-31)-NH2
  trabecular bone volume: most effective of the fragments, restoring the bones to the values in normal control rats
[2]; subcutaneous injection
  hypotensive action, in words: enhanced hypotensive effects
  time for tail artery pressure to fall to its minimum: much shorter time
[3]; ROS cell line
  increase in activity (AC) of cyclization plus Leu27 versus native sequence 1: ~6 fold
[4]; 0.6 nmole/100 g s.c., 36 injections, weeks 2-8 after OVX
  trabecular thickness (bone-building potency): especially superior activity compared to the linear analogue

## CC[C@H](C)[C@H](NC(=O)[C@H](CCC(=O)O)NC(=O)[C@H](CO)NC(=O)[C@@H](NC(=O)[C@@H](N)CO)C(C)C)C(=O)N[C@@H](CCC(N)=O)C(=O)N[C@@H](CC(C)C)C(=O)N[C@@H](CCSC)C(=O)N[C@@H](Cc1c[nH]cn1)C(=O)N[C@@H](CC(N)=O)C(=O)N[C@@H](CC(C)C)C(=O)NCC(=O)N[C@@H](CCCCN)C(=O)N[C@@H](Cc1c[nH]cn1)C(=O)N[C@@H](CC(C)C)C(=O)N[C@@H](CC(N)=O)C(=O)N[C@@H](CO)C(=O)N[C@@H](CCSC)C(=O)N[C@@H](CCC(=O)O)C(=O)N[C@@H](CCCN=C(N)N)C(=O)N[C@H](C(=O)N[C@@H](CCC(=O)O)C(=O)N[C@@H](Cc1c[nH]c2ccccc12)C(=O)N[C@@H](CC(C)C)C(=O)N[C@@H](CCCN=C(N)N)C(=O)N[C@@H](CCCCN)C(=O)N[C@@H](CCCCN)C(=O)N[C@@H](CC(C)C)C(=O)N[C@@H](CCC(N)=O)C(=O)N[C@@H](CC(=O)O)C(N)=O)C(C)C [peptide 6, hPTH-(1-30)-NH2] (H-SVSEIQLMHNLGKHLNSMERVEWLRKKLQD-NH2)
[5]; [6]
  EC50: 20 nM
[2]; subcutaneous, 0.8 nmol/100 g of body weight
  rate of transport of subcutaneously injected peptide to the vascular system: significantly (p<0.05) reduced rates of transport
[3]; [6]
  EC50: 20 nM

## CC[C@H](C)[C@H](NC(=O)[C@H](CCC(=O)O)NC(=O)[C@H](CO)NC(=O)[C@@H](NC(=O)[C@@H](N)CO)C(C)C)C(=O)N[C@@H](CCC(N)=O)C(=O)N[C@@H](CC(C)C)C(=O)N[C@@H](CCSC)C(=O)N[C@@H](Cc1c[nH]cn1)C(=O)N[C@@H](CC(N)=O)C(=O)N[C@@H](CC(C)C)C(=O)NCC(=O)N[C@@H](CCCCN)C(=O)N[C@@H](Cc1c[nH]cn1)C(=O)N[C@@H](CC(C)C)C(=O)N[C@@H](CC(N)=O)C(=O)N[C@@H](CO)C(=O)N[C@@H](CCSC)C(=O)N[C@@H](CCC(=O)O)C(=O)N[C@@H](CCCNC(=N)N)C(=O)N[C@H](C(=O)N[C@@H](CCC(=O)O)C(=O)N[C@@H](Cc1c[nH]c2ccccc12)C(=O)N[C@@H](CC(C)C)C(=O)N[C@@H](CCCNC(=N)N)C(=O)N[C@@H](CCCCN)C(=O)N[C@@H](CCCCN)C(=O)N[C@@H](CC(C)C)C(=O)N[C@@H](CCC(N)=O)C(=O)N[C@@H](CC(=O)O)C(N)=O)C(C)C [peptide 6, hPTH-(1-30)-NH2] (H-SVSEIQLMHNLGKHLNSMERVEWLRKKLQD-NH2)
[2]
  time to reduction of tail artery pressure: about 1 minute
[2]; intravenous injection
  hypotensive action, in words: potently hypotensive
[2]; subcutaneous injection
  hypotensive action, in words: reduces blood pressure as much as hPTH-(1-31)-NH2
  time for tail artery pressure to fall to its minimum: 13.8 ± 2.3 min
[2]; subcutaneously or intravenously, 0.8 nmol/100 g of body weight
  total blood pressure drop versus other analogues: not significantly different (p>0.05)
[3]
  AC-stimulating activity, comparison in words: stimulates AC almost as strongly as hPTH-(1-31)-NH and hPTH-(1-34)
[4]
  osteogenic activity, in words: does not stimulate bone formation

## [Leu^27]-hPTH-(1-34)-NH2 (SVSEIQLMHNLGKHLNSMERVEWLRKLLQDVHNF-NH2; not fully specified (bridges); UniProt P01270 32-65, looked up, variant K27L) [reference compound]
[5]
  AC activity in the ROS cell line, comparison in words: more active in stimulating AC activity in the ROS cell line than hPTH-(1-34)-NH2

B1: hPTH-(1-84) (protein, UniProt P01270 32-115, looked up)
Parathyroid hormone: SVSEIQLMHNLGKHLNSMERVEWLRKKLQDVHNFVALGAPLAPRDAGSQRPRKKEDNVLVESHEKSLGEADKADVNVLTKAKSQ
modifications: Parathyroid hormone
notes: full-length human parathyroid hormone, AC/PLC-stimulating
[2]
  time to reduction of tail artery pressure: about 1 minute
[2]; intravenous injection
  hypotensive action, in words: no significant difference
[2]; [7]
  reduction of tail artery pressure: 43.2±5.8 mm Hg
  time to maximum drop in tail artery pressure: 0.9 ± 0.08 min
[2]; subcutaneous injection
  time for tail artery pressure to fall to its minimum: needs the same amount of time to reduce the blood pressure
[4]
  osteogenic activity, in words: equally osteogenic; also recorded: strongly osteogenic

Reference: US6541450B1, “Parathyroid hormone analogues for the treatment of osteoporosis” (National Research Council of Canada, priority 1994, dated 2003)
